In patent US11083199B2, “Heterocycle derivatives as pesticides” (Bayer Aktiengesellschaft, priority 2017, dated 2021):

How the values were obtained:
Format in all cases: in vivo
Ctenocephalides felis [1] = assay: Ctenocephalides felis in vitro contact test with adult cat fleas; conditions: application rate 5 μg/cm^2 (=500 g/ha), adult cat fleas dead or moribund after 48 h, read-out: efficacy
Method: For the coating of the test tubes, 9 mg of active ingredient are first dissolved in 1 ml of acetone p.a. and then diluted to the desired concentration with acetone p.a. 250 μl of the solution are distributed homogeneously on the inner walls and the base of a 25 ml glass tube by turning and rocking on an orbital shaker (rocking rotation at 30 rpm for 2 h). With 900 ppm of active ingredient solution and internal surface area 44.7 cm^2, given homogeneous distribution, an area-based dose of 5 μg/cm^2 is achieved. After the solvent has evaporated off, the tubes are populated with 5-10 adult cat fleas (Ctenocephalides felis), sealed with a perforated plastic lid and incubated in a horizontal position at room temperature and ambient humidity. After 48 h, efficacy is determined. To this end, the tubes are stood upright and the fleas are knocked to the base of the tube. Fleas which remain motionless at the base or move in an uncoordinated manner are considered to be dead or moribund. […] 100% efficacy means that all the fleas were dead or moribund. 0% efficacy means that no fleas were harmed.

Ctenocephalides felis [2] = assay: Ctenocephalides felis oral test; conditions: 48 h, application rate 100 ppm in citrated cattle blood, kill after 2 days, read-out: efficacy
Method: Solvent: dimethyl sulfoxide To produce a suitable active ingredient formulation, 10 mg of active ingredient are mixed with 0.5 ml of dimethyl sulfoxide. Dilution with citrated cattle blood gives the desired concentration. About 20 unfed adult cat fleas (Ctenocephalides felis) are placed into a chamber which is closed at the top and bottom with gauze. A metal cylinder whose bottom end is closed with parafilm is placed onto the chamber. The cylinder contains the blood/active ingredient formulation, which can be imbibed by the fleas through the parafilm membrane. After 2 days, the kill in % is determined. 100% means that all of the fleas have been killed; 0% means that none of the fleas have been killed.

Lucilia cuprina = Lucilia cuprina test; conditions: 48 h, application rate 100 ppm, L1 larvae, kill after 2 days, read-out: efficacy
Method: Solvent: dimethyl sulfoxide To produce a suitable active ingredient formulation, 10 mg of active ingredient are mixed with 0.5 ml of dimethyl sulfoxide, and the concentrate is diluted with water to the desired concentration. About 20 L1 larvae of the Australian sheep blowfly (Lucilia cuprina) are transferred into a test vessel containing minced horsemeat and the active ingredient formulation of the desired concentration. After 2 days, the kill in % is determined. 100% means that all the larvae have been killed; 0% means that no larvae have been killed.

Myzus persicae [3] = assay: Myzus persicae oral test; conditions: 120 h, application rate 4 ppm, after 5 days, read-out: efficacy
Method: [table] To produce a suitable active ingredient formulation, 1 part by weight of active ingredient is dissolved with the stated parts by weight of solvent and made up to the desired concentration with water. 50 μl of the active ingredient formulation are transferred into microtitre plates and made up to a final volume of 200 μl with 150 μl of IPL41 insect medium (33%+15% sugar). Subsequently, the plates are sealed with parafilm, which a mixed population of green peach aphids (Myzus persicae) within a second microtitre plate is able to puncture and imbibe the solution. After 5 days, the efficacy in % is determined. 100% means that all the aphids have been killed; 0% means that no aphids have been killed.

Myzus persicae [4] = assay: Myzus persicae spray test; conditions: foliar, 120 h, application rate 100 g/ha, Chinese cabbage leaf discs, after 5 days, read-out: efficacy
Method: (§1) [table] To produce a suitable active ingredient formulation, 1 part by weight of active ingredient is dissolved with the specified parts by weight of solvent and made up to the desired concentration with water containing an emulsifier concentration of 1000 ppm. To produce further test concentrations, the formulation is diluted with emulsifier-containing water. Discs of Chinese cabbage leaves (Brassica pekinensis) infested by all stages of the green peach aphid (Myzus persicae) are sprayed with an active ingredient formulation of the desired concentration. After 5 days, the efficacy in % is determined. 100% means that all the aphids have been killed; 0% means that no aphids have been killed.

Phaedon cochleariae = Phaedon cochleariae spray test; conditions: 168 h, larvae, after 7 days, read-out: efficacy; for pest or weed control at 100 g/ha: application rate 100 g/ha
Method: as §1, with “pekinensis)” for “pekinensis) infested by all stages of the green peach aphid (Myzus persicae)”, “concentration and, after drying, populated with larvae of the mustard beetle (Phaedon cochleariae).” for “concentration.”, “7” for “5”, “beetle larvae” for “aphids”

Spodoptera frugiperda = Spodoptera frugiperda spray test; conditions: foliar, 168 h, application rate 100 g/ha, maize leaf discs, caterpillars, after 7 days, read-out: efficacy
Method: [table] To produce a suitable active ingredient formulation, 1 part by weight of active ingredient is dissolved with the specified parts by weight of solvent and made up to the desired concentration with water containing an emulsifier concentration of 1000 ppm. To produce further test concentrations, the formulation is diluted with emulsifier-containing water. Leaf discs of maize (Zea mays) are sprayed with an active ingredient formulation of the desired concentration and, after drying, populated with caterpillars of the fall armyworm (Spodoptera frugiperda). After 7 days, the efficacy in % is determined. 100% means that all the caterpillars have been killed; 0% means that no caterpillar has been killed.

Tetranychus urticae = Tetranychus urticae spray test, OP-resistant; conditions: foliar, 144 h, bean leaf discs, after 6 days, read-out: efficacy; for pest or weed control at 100 g/ha: application rate 100 g/ha; for pest or weed control at 20 g/ha: application rate 20 g/ha
Method: [table] To produce a suitable active ingredient formulation, 1 part by weight of active ingredient is dissolved with the specified parts by weight of solvent and made up to the desired concentration with water containing an emulsifier concentration of 1000 ppm. To produce further test concentrations, the formulation is diluted with emulsifier-containing water. Discs of bean leaves (Phaseolus vulgaris) infested with all stages of the greenhouse red spider mite (Tetranychus urticae) are sprayed with an active ingredient formulation of the desired concentration. After 6 days, the efficacy in % is determined. 100% means that all the spider mites have been killed; 0% means that no spider mites have been killed.

SMILES	pest or weed control at 5 µg/cm2, 500 g/ha (Ctenocephalides felis [1])	pest or weed control at 100 ppm (Ctenocephalides felis [2])	pest or weed control at 100 ppm (Lucilia cuprina)	pest or weed control at 4 ppm (Myzus persicae [3])	pest or weed control at 100 g/ha (Myzus persicae [4])	pest or weed control at 100 g/ha (Phaedon cochleariae)	pest or weed control at 100 g/ha (Spodoptera frugiperda)	pest or weed control at 100 g/ha (Tetranychus urticae)	pest or weed control at 20 g/ha (Tetranychus urticae)	pest or weed control at 500 g/ha (Phaedon cochleariae; application rate 500 g/ha)
CCS(=O)(=O)c1c(-c2nc3cc(C(F)(F)F)ncc3n2C)nc(-c2cccnc2F)n1C [Example I-020]	100%	100%	100%	100%	100%	100%	83%	–	–	–
CCS(=O)(=O)c1c(-c2nc3cc(C(F)(F)F)ncc3n2C)nc(-c2ccc(C3(C#N)CC3)cc2C)n1C [Example I-076]	–	–	–	–	100%	100%	100%	90%	–	–
CCS(=O)(=O)c1c(-c2nc3cc(C(F)(F)F)ncc3n2C)nc(-c2ccc(C3(C#N)CC3)c(F)c2)n1C [Example I-070]	–	–	–	100%	100%	100%	83%	100%	–	–
CCS(=O)(=O)c1c(-c2nc3cc(C(F)(F)F)ncc3n2C)nc(-c2cnn(C)c2)n1C [Example I-042]	–	–	–	100%	90%	100%	–	–	90%	–
CCS(=O)(=O)c1c(-c2nc3cc(C(F)(F)F)ncc3n2C)nc(-c2cncnc2)n1C [Example I-023]	100%	100%	100%	100%	100%	100%	–	–	–	–
CCS(=O)(=O)c1c(-c2nc3cc(C(F)(F)F)ncc3n2C)nc(-c2ccc(Cl)cn2)n1C [Example I-015]	100%	100%	100%	100%	90%	100%	100%	–	–	–
CCS(=O)(=O)c1c(-c2nc3cc(C(F)(F)F)ncc3n2C)nc(-c2cnn(C3CC3)c2)n1C [Example I-055]	–	100%	100%	100%	90%	100%	–	90%	–	–
CCn1c(Cl)nc(-c2nc3cc(C(F)(F)F)ncc3n2C)c1S(=O)(=O)CC [Example I-011]	100%	100%	100%	100%	100%	100%	100%	–	–	–
CCS(=O)(=O)c1c(-c2nc3cc(C(F)(F)F)ncc3n2C)nc(-c2ccncc2F)n1C [Example I-022]	100%	95%	100%	100%	100%	100%	–	–	–	–
CCS(=O)(=O)c1c(-n2cc3ccc(C(F)(F)F)cc3n2)nc(-c2ccc(Cl)cc2)n1C [Example I-092]	–	–	100%	100%	–	67%	100%	100%	–	–
CCS(=O)(=O)c1c(-c2nc3cc(C(F)(F)F)ncc3n2C)nc(-c2ccccc2)n1C [Example I-003]	100%	100%	100%	100%	90%	–	–	–	–	–
CCS(=O)(=O)c1c(-c2nc3cc(C(F)(F)F)ncc3n2C)nc(-c2ccc(C#N)c(Cl)c2)n1C [Example I-082]	–	–	–	100%	90%	100%	83%	100%	100%	–
CCS(=O)(=O)c1c(-c2nc3cc(C(F)(F)F)ncc3n2C)nc(-c2ccccn2)n1C [Example I-013]	100%	100%	100%	100%	90%	100%	–	–	–	–
CCS(=O)(=O)c1c(-c2nc3cc(C(F)(F)F)ncc3n2C)nc(-c2cc(Cl)cc(C3(C#N)CC3)c2)n1C [Example I-077]	–	–	–	–	90%	100%	–	100%	90%	–
CCS(=O)(=O)c1c(-c2nc3cc(C(F)(F)F)ncc3n2C)nc(-c2cccc(C3(C#N)CC3)c2)n1C [Example I-087]	–	–	–	100%	–	100%	100%	–	90%	–
CCS(=O)(=O)c1c(-c2nc3cc(C(F)(F)F)ncc3n2C)nc(/C=C/C2CC2)n1C [Example I-007, 2-{2-[(E)-2-Cyclopropylvinyl]-5-(ethylsulfonyl)-1-methyl-1H-imidazol-4-yl}-3-methyl-6-(trifluoromethyl)-3H-imidazo[4,5-c]pyridine]	100%	95%	100%	100%	90%	100%	100%	–	–	–
CCS(=O)(=O)c1c(-c2nc3cc(C(F)(F)F)ncc3n2C)nc(-c2ccc(C(C)(C)C#N)cc2)n1C [Example I-066]	–	–	–	100%	70%	–	–	90%	–	83%
